Assays:
[1] = molecular target: T1, enkephalinase (Rattus norvegicus, UniProt P07861); assay: Inhibitory activity against enkephalinase (Test 1); format: biochemical; conditions: for Inhibitory activity to enkephalinase ID50: partially purified enkephalinase from rat brain corpus striatum, substrate methionine-enkephaline, 37° C., 1 hour, HPLC of Tyr-Gly-Gly
T1 construct: homogenizing corpus striatum of rat brain and by partial purification of the brain homogenate; from tissue; host or cells: corpus striatum of rat brain
T1 sequence (P07861 2-750 limits assumed): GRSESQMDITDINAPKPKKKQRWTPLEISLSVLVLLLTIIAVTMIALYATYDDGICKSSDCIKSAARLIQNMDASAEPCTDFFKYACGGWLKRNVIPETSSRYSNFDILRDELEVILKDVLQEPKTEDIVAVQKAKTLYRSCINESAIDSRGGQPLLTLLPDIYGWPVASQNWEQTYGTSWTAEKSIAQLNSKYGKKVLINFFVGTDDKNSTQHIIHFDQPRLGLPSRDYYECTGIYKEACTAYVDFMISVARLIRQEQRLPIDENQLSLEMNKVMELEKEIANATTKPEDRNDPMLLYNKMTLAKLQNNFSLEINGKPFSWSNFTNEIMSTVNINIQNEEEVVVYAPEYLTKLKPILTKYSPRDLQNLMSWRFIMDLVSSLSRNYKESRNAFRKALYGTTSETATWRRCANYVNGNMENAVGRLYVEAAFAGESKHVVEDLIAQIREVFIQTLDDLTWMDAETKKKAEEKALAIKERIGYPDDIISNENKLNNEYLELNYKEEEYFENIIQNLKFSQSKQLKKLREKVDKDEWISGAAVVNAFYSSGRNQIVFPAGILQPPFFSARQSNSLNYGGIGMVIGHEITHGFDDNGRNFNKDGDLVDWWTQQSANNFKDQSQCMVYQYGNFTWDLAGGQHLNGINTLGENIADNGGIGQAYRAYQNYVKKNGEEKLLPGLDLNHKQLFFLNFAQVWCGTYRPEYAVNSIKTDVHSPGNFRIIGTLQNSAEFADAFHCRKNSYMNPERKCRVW
Method: To the solution of the test compound so prepared was added the enkephalinase, followed by incubation for five minutes at ambient temperature and further by addition of methionine-enkephaline as the substrate. The admixture so obtained was incubated at 37° C. for 1 hour and then subjected to a high-performance liquid chromatography in such a manner that the Tyr-Gly-GLy (a fragment of the methionine-enkephaline) formed by the enzymatic degradation of methionine-enkephaline was isolated in some fractions of the eluate and the quantity of Tyr-Gly-GLy was determined by an electro-chemically analysing detector.

[2] = tested on: Wistar rats; assay: Enhancement of morphine analgesia, tail-flick latency (Test 2); format: in vivo, rat
Method: To Wistar rats (10 week aged, male, body weight 250-300 g) was given intraperitoneally morphine at a dose of 0.5 mg/kg, and these rats receiving the morphine were classified into the group of morphine analgesia-effective rats and the group of morphine analgesia-non-effectiverats according to the classification method described in the "Showa Igakukai Zasshi" Vol. 39, No. 5, pages 537-542 (1979). […] The effect of analgesia was evaluated according to the method of tail-flick latency of rats described in the "Showa Igakukai Zasshi" Vol. 39, No. 5, pages 537-542 (1979). The evaluation of pain threshold of rats according to the tail-flick latency method was made as follows: Radiant heat stimulus was applied to the region of the rat tail which positioned 1 cm away from the tail tip and which had been colored black with a black-dye, and the time of latency involved in the tail flick, namely the period of time lapsing between the time of application of the heat stimulus and the time of the reflective flick response of the tail was measured. The quantity of the heat applied was so controlled that the average time of latency of the tail-flick response appearing in the control group of rats (receiving not the test compound but the morphine) was about 2.0 seconds. The tests were accomplished as long as the maximum value for the tail-flick latency was 7.0 seconds or less, as otherwise the skin of the rat tail could be damaged by the application of heat. In other words, if the time for the tail-flick latency was longer than 7.0 seconds, the tests were stopped to prevent the damage of the rat tail. The radiant heat stimulus was repeated 5 times for each test rat at an interval of 15 minutes and the times of latency in the flick response of the tail measured in each test were averaged. In each test, 5 rats were used.
The difference in the time of the tail-flick latency between the test rats (receiving 250 mg/kg of the test compound plus 0.5 mg/kg of morphine) and the control rats (receiving 0.5 mg/kg of morphine alone) was calculated, and the effect for enhancement of morphine analgesia was estimated in term of the value of percentages which were calculated by the following equation: [formula]

[3] = tested on: ICR-strain mice; conditions: 2 g/kg intraperitoneally, 6 mice per group
[4] = tested on: rats; assay: Analgesic activity of test compound administered alone intracisternally, tail-flick latency (Test 3); format: in vivo, rat; conditions: for Analgesic activity (%) (increase in tail-flick latency): no morphine
Method: Analgesic activity was evaluated in term of the value of percentages of increase in the tail-flick latency of the test rats receiving the test compound, as compared to the control rats receiving no test compound.
The test as above was repeated with 2 mcg/kg of naloxone (a specific antogonizer to morphine) being intraperitoneally given into the test rats simultaneously to the intracisternal administration of the bestatin-related compound under test.

[5] = 250 mg/kg test compound i.p. + 0.5 mg/kg morphine i.p., morphine analgesia-non-effective rats, versus 0.5 mg/kg morphine alone

| Structure (SMILES) | Inhibitory activity to enkephalinase ID50 [1] | Analgesia enhancement (%) [2, 5] | also measured |
| --- | --- | --- | --- |
| CC(C)C[C@H](NC(=O)[C@@H](O)[C@H](N)Cc1ccccc1)C(=O)O [Compound 1, (2S,3R)-3-amino-2-hydroxy-4-phenylbutanoyl-(S)-leucine] | 0.62 milimol | 19.5% | – |
| CC(C)C[C@H](NC(=O)[C@H](O)[C@H](N)Cc1ccccc1)C(=O)O [Compound 2, (2S,3R)-3-amino-2-hydroxy-4-phenylbutanoyl-(R)-leucine] | 2.40 milimol | 24.9% | – |
| N[C@H](Cc1ccccc1)[C@H](O)C(=O)N[C@H](CCC(=O)O)C(=O)O [Compound 3, (2S,3R)-3-amino-2-hydroxy-4-phenylbutanoyl-(R)-glutamic] | 30.86 milimol | – | – |
| C[C@H](NC(=O)[C@H](O)[C@H](N)Cc1ccccc1)C(=O)O [Compound 4, (2S,3R)-3-amino-2-hydroxy-4-phenylbutanoyl-(R)-alanine] | 5.98 milimol | – | Acute toxicity (survival) [3]: all the mice receiving 2 g/kg of AHPA-D-Ala survived |
| N=C(N)NCCC[C@H](NC(=O)[C@H](O)[C@H](N)Cc1ccccc1)C(=O)O [Compound 5, (2S,3R)-3-amino-2-hydroxy-4-phenylbutanoyl-(R)-arginine] | 0.063 milimol | 13.6% | Activity to inhibit enkephalinase in vitro (in words) ([1]; summary statement): high activity to inhibit enkephalinase; Enhancement of the analgesic activity of morphine (in words) ([2]; summary statement): not significantly effective; Analgesic activity (%) (increase in tail-flick latency) ([4]; dose 60 mcg intracisternally): 134.0%; Analgesic activity when administered intracisternally in the brain (in words) ([4]; summary statement): high analgesic activity |
| CSCC[C@H](NC(=O)[C@H](O)[C@H](N)Cc1ccccc1)C(=O)O [Compound 6, (2S,3R)-3-amino-2-hydroxy-4-phenylbutanoyl-(R)-methionine] | 2.54 milimol | 14.7% | – |
| CSCC[C@H](NC(=O)[C@@H](O)[C@H](N)Cc1ccccc1)C(=O)O [Compound 7, (2S,3R)-3-amino-2-hydroxy-4-phenylbutanoyl-(S)-methionine] | 2.78 milimol | 10.5% | – |
| CC(C)C[C@H](NC(=O)[C@@H](O)[C@H](N)Cc1ccc(O)cc1)C(=O)O [Compound 8, (2S,3R)-3-amino-2-hydroxy-4-p-hydroxyphenylbutanoyl-(S)-leucine] | 0.37 milimol | 34.5% | Analgesic activity (%) (increase in tail-flick latency) ([4]; dose 500 mcg intracisternally): 47.0% |
| CC(C)C[C@H](NC(=O)[C@H](O)[C@H](N)Cc1ccc(O)cc1)C(=O)O [Compound 9, (2S,3R)-3-amino-2-hydroxy-4-p-hydroxyphenylbutanoyl-(R)-leucine] | 20.68 milimol | 23.1% | – |
| N[C@H](Cc1ccc(O)cc1)[C@H](O)C(=O)N[C@H](Cc1ccccc1)C(=O)O [Compound 10, (2S,3R)-3-amino-2-hydroxy-4-p-hydroxyphenylbutanoyl-(R)-phenylalanine] | – | 27.0% | – |
| CC(C)C[C@H](NC(=O)[C@@H](O)[C@H](N)Cc1ccccc1)C(=O)N[C@H](CC(C)C)C(=O)O [Compound 11, (2S,3R)-3-amino-2-hydroxy-4-phenylbutanoyl-(S)-leucyl-(R)-leucine] | 0.95 milimol | 5.2% | – |
| N[C@H](Cc1ccccc1)[C@H](O)C(=O)NCCC(=O)O [Compound 12, (2S,3R)-3-amino-2-hydroxy-4-phenylbutanoyl-β-alanine] | – | 12.0% | – |
| NC(=O)C[C@H](NC(=O)[C@H](O)[C@H](N)Cc1ccccc1)C(=O)O [Compound 13, (2S,3R)-3-amino-2-hydroxy-4-phenylbutanoyl-(R)-asparagine] | 3.12 milimol | – | – |
| N[C@H](Cc1ccccc1)[C@H](O)C(=O)NCC(=O)O [Compound 14, (2S,3R)-3-amino-2-hydroxy-4-phenylbutanoyl-glycine] | – | 19.1% | – |
| N[C@H](Cc1ccccc1)[C@H](O)C(=O)O [Compound 15, (2S,3R)-3-amino-2-hydroxy-4-phenylbutanoic acid] | – | 14.1% | – |
| CN1CC[C@]23c4c5ccc(O)c4O[C@H]2[C@@H](O)C=C[C@H]3[C@H]1C5 [Morphine, reference compound] | – | – | Analgesia enhancement (%) ([2]; comparative: morphine 0.5 mg/kg alone (control reference)): 0%; Analgesia enhancement (%) ([2]; comparative: morphine 2 mg/kg alone): 28.4%; Analgesia enhancement (%) ([2]; comparative: morphine 3 mg/kg alone): 35.1% |

Source: patent publication US4395402A, “Analgesic agent” (Zaidan Hojin Biseibutsu Kagaku Kankyu Kai, priority 1980, dated 1983)
